The values that follow come from US9896718B2, “Herbicide tolerant cotton event pDAB4468.18.07.1” (Dow AgroSciences LLC, priority 2012, dated 2018).

Where two headings read alike, the source gives them in different places.

Data set [1] concerns cotton event pDAB4468.18.07.1. As to the kind of experiment: Agronomic characterization in field trials with and without herbicide application. The class given is in vivo, Gossypium hirsutum. The settings on record: standard field application rates, 2010 field trials. From the text: The agronomic characteristics of cotton event pDAB4468.18.07.1 were quantified in field trials conducted across geographically different locations throughout the cotton belt in 2010. These studies compared the agronomic performance of cotton event pDAB4468.18.07.1 (with and without applications of the herbicides 2,4-D and glufosinate) to the non-transgenic near-isoline control, Coker 310. No agronomically meaningful unintended differences were observed between cotton event pDAB4468.18.07.1 and the Coker 310 control plants. […] Additionally, the agronomic performance of cotton event pDAB4468.18.07.1 was not altered as a result of the application of the herbicides, 2,4-D and glufosinate, as compared to the cotton event pDAB4468.18.07.1 plants which were not sprayed with the herbicide treatments. […]
Seeds of cotton event pDAB4468.18.07.1 and seeds of the near-isoline control line, Coker 310, were planted at a rate of 80 seeds per 20 ft row with a row spacing of 34-38 inches (86.36 cm-96.52 cm). […] The measured agronomic characteristics were equivalent for cotton event pDAB4468.18.07.1 as compared to the Coker 310 near-isoline control plants for all of the agronomic characteristics measured and statistically analyzed. […]

Data set [2] deals with cotton event pDAB4468.18.07.1. As to the kind of experiment: Tolerance to 2,4-D in field trials (percent visual injury after postemergence application). In kind it is in vivo, Gossypium hirsutum. The settings on record: for Percent visual injury: postemergence, 2-4 leaf cotton, field. Here is the method: The application of 2,4-D on cotton plants at this stage of development represents a herbicide application timing typically utilized to achieve satisfactory weed control by cotton growers.
2,4-D tolerance was measured by assessing cotton plants for injury at 0-1 day after application (DAA), 7-8 DAA, 12-16 DAA, and 24-32 DAA. Measurements for the 0-1 day time increment were taken from 6-24 hours after the application. […] The ratings were a composite score for any herbicide symptomology including epinasty, chlorosis, leaf necrosis and plant death. Herbicide symptomology present at 0-1 DAA was primarily epinasty and symptoms at later evaluations were primarily chlorosis and necrosis.
(§1) Field trials were conducted at eleven locations across the United States in typical cotton producing areas of Alabama, Arkansas, California, Georgia, Louisiana, Mississippi, North Carolina, South Carolina, and Tennessee. Trials were designed with four replications per treatment. Each replication was separated by a bare-soil alley 10-15 feet wide. Plot size for individual treatments was 2 rows by 20 feet long with rows typically spaced 36-40 inches apart. Experimental treatments consisted of cotton event pDAB4468.18.07.1 sprayed with 2,4-D amine (Weedar 64™, NuFarm, Burr Ridge, Ill.) at either 0, 1120, 2240, or 4480 grams acid equivalent per hectare (g ae/ha) applied in 15 gallons per acre of final spray solution. A non-transformed cotton comparator treatment was not included in these experiments since treatment with 2,4-D at rates much lower than the lowest rate tested (1120 g ae/ha) are known to result in plant death.

For another data set, the system named is non-transformed cotton. The settings on record: rates much lower than the lowest rate tested (1120 g ae/ha); known; cited from earlier work.
The test system of data set [3] is cotton event pDAB4468.18.07.1. Particulars: for % Injury: cotton event pDAB4468.18.07.1, 3 leaf stage. As for the experimental part:
The tolerance of cotton event pDAB4468.18.07.1 to postemergence applications of the pyridyloxyacetic acid herbicides, triclopyr and fluroxypyr, was studied in greenhouse trials. Herbicide tolerance was assessed following a single postemergence application of triclopyr or fluroxypyr.
Seeds from cotton event pDAB4468.18.07.1 were heat treated in a water bath at 82.5° C. for 1 minute and then planted in metro mix 360 media and grown in a greenhouse. The temperatures in the greenhouse averaged 27° C. and the photoperiod was set at 16 hours of light and eight hours of dark, with maximum light intensity. Plants were allowed to grow until the 3 leaf stage of development and a non-randomized study was conducted with three replications and three treatments for each herbicide. Plants were sprayed in a track sprayer calibrated to deliver 187 L/ha of the commercial formulations of triclopyr (Garton 4™, Dow AgroSciences, Indianapolis, Ind.) and fluroxypyr (Starane™, Dow AgroSciences, Indianapolis, Ind.). A non-transformed Coker 310 variety of cotton was used as a negative control. Visual injury assessment was taken 3 DAA (days after application) and 11 DAA comparing each rate of herbicide. Injury was assessed visually as percentage of epinastic cotton-plant foliage using a linear percentage scale […] where 0% represents no visible herbicide injury and 100% represents plant death.

Data set [4] has as its system non-transformed Coker 310 variety of cotton. The data set is described as follows: Tolerance to triclopyr and fluroxypyr in greenhouse trials (percent visual injury), negative control plants. The class given is in vivo. Particulars: 3 leaf stage.
Experimental: Seeds from cotton event pDAB4468.18.07.1 were heat treated in a water bath at 82.5° C. for 1 minute and then planted in metro mix 360 media and grown in a greenhouse. The temperatures in the greenhouse averaged 27° C. and the photoperiod was set at 16 hours of light and eight hours of dark, with maximum light intensity. Plants were allowed to grow until the 3 leaf stage of development and a non-randomized study was conducted with three replications and three treatments for each herbicide. Plants were sprayed in a track sprayer calibrated to deliver 187 L/ha of the commercial formulations of triclopyr (Garton 4™, Dow AgroSciences, Indianapolis, Ind.) and fluroxypyr (Starane™, Dow AgroSciences, Indianapolis, Ind.). A non-transformed Coker 310 variety of cotton was used as a negative control. Visual injury assessment was taken 3 DAA (days after application) and 11 DAA comparing each rate of herbicide. Injury was assessed visually as percentage of epinastic cotton-plant foliage using a linear percentage scale (1-100%) where 0% represents no visible herbicide injury and 100% represents plant death.
Data set [5] relates to cotton event pDAB4468.18.07.1. As to the kind of experiment: Tolerance to glufosinate in field trials (percent visual injury after postemergence application). The class given is in vivo, Gossypium hirsutum. Particulars: for Percent visual injury: postemergence, 6-8 leaf cotton, field. As for the experimental part: Glufosinate tolerance was measured by assessing cotton plants for injury at 2-4 days after application (DAA), 7-9 DAA, 13-19 DAA and 22-29 DAA. […] The ratings were a composite score for any herbicide symptomology including chlorosis, leaf necrosis, stunting and plant death. Herbicide symptomology (where present) was primarily chlorosis and necrosis.
as §1, with “glufosinate ammonium (Ignite 280 SL™, Bayer, Research Triangle, N.C.)” for “2,4-D amine (Weedar 64™, NuFarm, Burr Ridge, Ill.)”, “542, 1084,” for “1120, 2240,”, “2168” for “4480”, “glufosinate” for “2,4-D”, “(542” for “(1120”, “would be expected” for “are known”

Consider `CNC.O=C(O)COc1ccc(Cl)cc1Cl` [2,4-D], for which the “agronomic performance of cotton event after herbicide application vs unsprayed plants” value in data set [1] is recorded as “not altered”. In data set [2] (1120-4480 g ae/ha, with the exception of transient epinasty 0-1 DAA), the “herbicide injury noted in the experiments” value is recorded as “no agronomically-significant herbicide injury”. Moreover, the Percent visual injury was determined as 5.0% in data set [2] (1120 g ae/ha, 0-1 DAA); 2.3% in data set [2] (1120 g ae/ha, 7-8 DAA); 1.1% in data set [2] (1120 g ae/ha, 12-16 DAA); 0.0% in data set [2] (1120 g ae/ha, 24-32 DAA); 11.7% in data set [2] (2240 g ae/ha, 0-1 DAA); 4.9% in data set [2] (2240 g ae/ha, 7-8 DAA). Besides, the Percent visual injury is listed as 2.7% in data set [2] (2240 g ae/ha, 12-16 DAA); 0.4% in data set [2] (2240 g ae/ha, 24-32 DAA); 21.0% in data set [2] (4480 g ae/ha, 0-1 DAA); 15.1% in data set [2] (4480 g ae/ha, 7-8 DAA); 8.0% in data set [2] (4480 g ae/ha, 12-16 DAA); 2.2% in data set [2] (4480 g ae/ha, 24-32 DAA). Further, the “crop injury beyond the 7-8 DAA evaluation interval” value in data set [2] (4480 g ae/ha (>4× rate required for broad spectrum weed control)) is “little crop injury”. The “result of treatment of non-transformed cotton” value in the data set with non-transformed cotton is listed as “plant death”.

`O=C(O)COc1nc(Cl)c(Cl)cc1Cl` [Triclopyr, triclopyr]: the “tolerance of the plants” value in data set [3] (3 DAA, greenhouse) is “moderate levels of tolerance”. Further, the “% Injury” value is reported as 11.8 b % in data set [3] (140 g ae/ha, 3 DAA, greenhouse); 3.0 a % in data set [3] (140 g ae/ha, 11 DAA, greenhouse); 17.0 a % in data set [3] (280 g ae/ha, 3 DAA, greenhouse); 6.3 a % in data set [3] (280 g ae/ha, 11 DAA, greenhouse); 19.3 a % in data set [3] (560 g ae/ha, 3 DAA, greenhouse); 3.5 a % in data set [3] (560 g ae/ha, 11 DAA, greenhouse). Also, the “% Injury” value worked out at 33.8 a % in data set [4] (140 g ae/ha, 3 DAA); 36.3 b % in data set [4] (140 g ae/ha, 11 DAA); 33.8 a % in data set [4] (280 g ae/ha, 3 DAA); 40.0 ab % in data set [4] (280 g ae/ha, 11 DAA); 36.3 a % in data set [4] (560 g ae/ha, 3 DAA); 48.8 a % in data set [4] (560 g ae/ha, 11 DAA). The “tolerance of the plants compared to the non-transformed control” value in data set [3] (by 11 DAA, recovered from the initial epinastic response, greenhouse) was “robust tolerance”.

Regarding `CP(=O)(O)CCC(N)C(=O)O` (stereo not shown) [glufosinate], the “agronomic performance of cotton event after herbicide application vs unsprayed plants” value in data set [1] is on record as “not altered”. The “herbicide injury noted in the experiments” value in data set [5] (542-2168 g ae/ha, with the exception of transient chlorosis at 2168 g ae/ha at 2-4 & 7-9 DAA) is on record as “no agronomically-significant herbicide injury”. The Percent visual injury was 3.1% in data set [5] (542 g ae/ha, 2-4 DAA); 2.3% in data set [5] (542 g ae/ha, 7-9 DAA); 0.1% in data set [5] (542 g ae/ha, 13-19 DAA); 0.1% in data set [5] (542 g ae/ha, 22-29 DAA); 7.6% in data set [5] (1084 g ae/ha, 2-4 DAA); 4.8% in data set [5] (1084 g ae/ha, 7-9 DAA). In addition, the Percent visual injury in data set [5] (1084 g ae/ha, 13-19 DAA) is reported as 0.1%; in data set [5] (1084 g ae/ha, 22-29 DAA), 0.0%; in data set [5] (2168 g ae/ha, 2-4 DAA) it was 14.8%; in data set [5] (2168 g ae/ha, 7-9 DAA) it was 10.8%; in data set [5] (2168 g ae/ha, 13-19 DAA) it was 2.2%; in data set [5] (2168 g ae/ha, 22-29 DAA), 0.3%. Moreover, the “crop injury beyond the 7-9 DAA evaluation interval” value in data set [5] (2168 g ae/ha (>4× rate required for broad spectrum weed control)) is “little crop injury”.

Regarding `Nc1c(Cl)c(F)nc(OCC(=O)O)c1Cl` [Fluroxypyr, fluroxypyr], the “level of herbicide to which tolerance is provided” value in data set [3] (in vivo) was “up to 280 g ae/ha”.
